For this assay, the system named is IL-8. Kind of assay: Glucocorticoid transrepression assay, IL-8 inhibition (TR). It counts as cell-based. As to conditions: Homo sapiens, NCl-H292 cells, TNFα 10 ng/ml; for Emax: read-out: IL-8 inhibition (TR) Emax % inhibition. The procedure:
Human Lung epithelial cell line NCl-H292 cells were dissociated from stock flask using 0.05% trypsin/0.53 mM EDTA. Cells were suspended in complete medium and counted. Cells were plated in 96-well flat-bottom plates at 20K cells /well in 0.2 ml/well. Plates were incubated for 24-48 hours until cells were between 75-90% confluent. Medium was aspirated and replaced with medium containing various concentrations of steroids or antagonists. After 1 hour incubation at 37°, TNFα (10 ng/ml final concentration in 0.2 ml) was added and the cells incubated overnight. Control wells with and without TNF were included on each plate, as well as wells with TNF in addition to a maximum (10 μM) concentration of dexamethasone. The cell culture medium was sampled and IL-6 and IL-8 cytokine production was measured using the MSD Multi-Spot immunoassay.

Read-outs that look alike come from different tables or passages of the source.

`CC12Cc3cnn(-c4ccccn4)c3C=C1CCC1C2[C@@H](O)CC2(C)C1CC[C@]2(O)C(=O)CSc1nc2ccccc2o1` (some centres unmarked) [Compound 36]: under “Table 1”, the IC50 (as a rule, the midpoint of a concentration-inhibition curve) fell in the range of 0.06 to 20 nM and the Emax (usually the size of the effect at its maximum, as opposed to the concentration needed) is > 80%.
As for `CC12Cc3cnn(C(C)(C)C)c3C=C1CCC1C2[C@@H](O)CC2(C)C1CC[C@]2(O)C(=O)CSc1nc2ccccc2[nH]1` (some centres unmarked) [Compound 68], where the note is “Table 1”, the Emax is < 60%.
With `CC12Cc3cnn(-c4ccc(F)cc4)c3C=C1CCC1C2[C@@H](O)CC2(C)C1CC[C@]2(O)C(=O)CSc1nc2ccc(O)cc2[nH]1` (some centres unmarked) [Compound 94], where the note is “Table 1”, the half-maximal inhibitory concentration (IC50) was in the range of 0.06 to 20 nM and the Emax was > 80%.
Regarding `Cn1ncc2c1C=C1CCC3C([C@@H](O)CC4(C)C3CC[C@]4(O)C(=O)CSc3nc4ccccc4s3)C1(C)C2` (some centres unmarked) [Compound 21], the Emax (Table 1) was < 60%.
On to `CCOC(=O)c1cnn(CC(=O)[C@@]2(O)CCC3C4CCC5=Cc6c(cnn6-c6ccc(F)cc6)CC5(C)C4[C@@H](O)CC32C)c1` (some centres unmarked) [Compound 3], for which, for the setting “Table 7”, the IC50 is 0.06 to 20 nM and the maximal response (Emax) was > 80%.
Consider `C[C@]12Cc3cnn(-c4ccc(F)cc4)c3C=C1CCC1C2[C@@H](O)C[C@@]2(C)C1CC[C@]2(O)C(=O)CN1CCN(c2ncccn2)CC1` (some centres unmarked) [Compound 4], for which, under “Table 5”, the IC50 lay within 0.06 to 20 nM and the maximum response (Emax) is > 80%.
Take `CC12Cc3cnn(C4CCOCC4)c3C=C1CCC1C2[C@@H](O)CC2(C)C1CC[C@]2(O)C(=O)CSc1nc2ccccc2[nH]1` (some centres unmarked) [Compound 75]: the Emax (Table 1) was < 60%.
For `Cc1cnn(CC(=O)[C@@]2(O)CCC3C4CCC5=Cc6c(cnn6-c6ccc(F)cc6)CC5(C)C4[C@@H](O)CC32C)c1` (some centres unmarked) [Compound 4], under “Table 7”, the concentration for half-maximal inhibition (IC50) fell in the range of 0.06 to 20 nM and the Emax was > 80%.
Turning to `CC12Cc3cnn(C4CCOCC4)c3C=C1CCC1C2[C@@H](O)CC2(C)C1CC[C@]2(O)C(=O)CSc1nc2ncccc2o1` (some centres unmarked) [Compound 72], where the note is “Table 1”, the IC50 was in the range of 21 to 65 nM and the Emax was > 80%.
Turning to `C[C@H](NC(=O)[C@@]1(OC(=O)c2ccco2)CCC2C3CCC4=Cc5c(cnn5-c5ccc(F)cc5)CC4(C)C3[C@@H](O)CC21C)c1ccccc1` (some centres unmarked) [Compound 16], for the setting “Table 2”, the IC50 was 0.06 to 20 nM and the Emax is > 80%.
As for `CC12Cc3cnn(C4CCOCC4)c3C=C1CCC1C2[C@@H](O)CC2(C)C1CC[C@]2(O)C(=O)CSc1ccccn1` (some centres unmarked) [Compound 73], under “Table 1”, the IC50 lay within 0.06 to 20 nM and the Emax was > 80%.
As for `CC12Cc3cnn(-c4ccccn4)c3C=C1CCC1C2[C@@H](O)CC2(C)C1CC[C@]2(O)C(=O)CSc1ccc2ccccc2n1` (some centres unmarked) [Compound 37], the maximal response (Emax) (Table 1) was < 60%.
With `CC12Cc3cnn(-c4ccccn4)c3C=C1CCC1C2[C@@H](O)CC2(C)C1CC[C@]2(O)C(=O)CSc1nc2ncccc2o1` (some centres unmarked) [Compound 43], where the note is “Table 1”, the half-maximal inhibitory concentration (IC50) is 21 to 65 nM and the Emax lay in the range of 70 to 80%.
Consider `C[C@H](NC(=O)[C@@]1(O)CCC2C3CCC4=Cc5c(cnn5-c5ccc(F)cc5)C[C@]4(C)C3[C@@H](O)C[C@@]21C)c1ccccc1` (some centres unmarked) [Compound 13], for which, where the note is “Table 2”, the IC50 is 0.06 to 20 nM and the maximum response (Emax) is > 80%.
For `CC12Cc3cnn(-c4ccccc4)c3C=C1CCC1C2[C@@H](O)CC2(C)C1CC[C@]2(O)C(=O)COc1nc2ccccc2s1` (some centres unmarked) [Compound 120], for the setting “Table 1”, the half-maximal inhibitory concentration (IC50) was in the range of 0.06 to 20 nM and the Emax was > 80%.
`CC12Cc3cnn(-c4ccc(F)cc4)c3C=C1CCC1C2[C@@H](O)CC2(C)C1CC[C@]2(O)C(=O)NCc1nc2ccccc2o1` (some centres unmarked) [Compound 20]: where the note is “Table 2”, the concentration for half-maximal inhibition (IC50) is 0.06 to 20 nM and the maximum response (Emax) was > 80%.
In the case of `COc1ccc2nc(SCC(=O)[C@@]3(O)CCC4C5CCC6=Cc7c(cnn7-c7ccc(F)cc7)CC6(C)C5[C@@H](O)CC43C)sc2c1` (some centres unmarked) [Compound 103], for the setting “Table 1”, the IC50 fell in the range of 0.06 to 20 nM and the Emax was > 80%.
Turning to `Cn1cnnc1SCC(=O)[C@@]1(O)CCC2C3CCC4=Cc5c(cnn5-c5ccccn5)CC4(C)C3[C@@H](O)CC21C` (some centres unmarked) [Compound 41], the Emax (Table 1) is < 60%.
With `CC12Cc3cnn(-c4ccccn4)c3C=C1CCC1C2[C@@H](O)CC2(C)C1CC[C@]2(O)C(=O)CSc1ncccn1` (some centres unmarked) [Compound 40], for the setting “Table 1”, the IC50 fell in the range of 66 to 400 nM and the Emax was in the range of 60 to 70%.
Regarding `CC12Cc3cnn(-c4ccc(F)cc4)c3C=C1CCC1C2[C@@H](O)CC2(C)C1CC[C@]2(O)C(=O)CSc1ncnc2ccccc12` (some centres unmarked) [Compound 98], under “Table 1”, the half-maximal inhibitory concentration (IC50) was in the range of 0.06 to 20 nM and the Emax was > 80%.
`CC12Cc3cnn(-c4ccc(F)cc4)c3C=C1CCC1C2[C@@H](O)CC2(C)C1CC[C@]2(O)C(=O)CSc1cnc2ccccc2n1` (some centres unmarked) [Compound 6]: under “Table 1”, the 50% inhibitory concentration (IC50) lay within 0.06 to 20 nM and the Emax is > 80%.
As for `Cc1ccccc1-n1ncc2c1C=C1CCC3C([C@@H](O)CC4(C)C3CC[C@]4(O)C(=O)CSc3nc4cccnc4s3)C1(C)C2` (some centres unmarked) [Compound 78], under “Table 1”, the Emax was < 60%.
On to `CC12Cc3cnn(CCC#N)c3C=C1CCC1C2[C@@H](O)CC2(C)C1CC[C@]2(O)C(=O)CSc1nc2ccccc2[nH]1` (some centres unmarked) [Compound 52], for which, under “Table 1”, the IC50 lay in the range of 401 to 1000 nM and the Emax is < 60%.
With `Cn1c(SCC(=O)[C@@]2(O)CCC3C4CCC5=Cc6c(cnn6-c6ccc(F)cc6)CC5(C)C4[C@@H](O)CC32C)nc2cc(S(N)(=O)=O)ccc21` (some centres unmarked) [Compound 123], under “Table 1”, the 50% inhibitory concentration (IC50) lay in the range of 0.06 to 20 nM and the maximal effect (Emax) was > 80%.
With `CC12Cc3cnn(-c4ccc(F)cc4)c3C=C1CCC1C2[C@@H](O)CC2(C)C1CC[C@]2(O)C(=O)Nc1nc2ccc(S(N)(=O)=O)cc2s1` (some centres unmarked) [Compound 18], under “Table 2”, the concentration for half-maximal inhibition (IC50) fell in the range of 0.06 to 20 nM and the maximum response (Emax) is > 80%.
As to `CC12Cc3cnn(-c4ccc(F)cc4)c3C=C1CCC1C2[C@@H](O)CC2(C)C1CC[C@]2(O)C(=O)Cn1cc(-c2cccnc2)nn1` (some centres unmarked) [Compound 1], where the note is “Table 6”, the half-maximal inhibitory concentration (IC50) is 0.06 to 20 nM and the maximal response (Emax) was > 80%.
For `Cc1cccc(SCC(=O)[C@@]2(O)CCC3C4CCC5=Cc6c(cnn6-c6ccccn6)CC5(C)C4[C@@H](O)CC32C)n1` (some centres unmarked) [Compound 47], for the setting “Table 1”, the concentration for half-maximal inhibition (IC50) lay in the range of 66 to 400 nM and the Emax was > 80%.
Consider `CC(NC(=O)[C@@]1(O)CCC2C3CCC4=Cc5c(cnn5-c5ccc(F)cc5)CC4(C)C3[C@@H](O)CC21C)c1nc2ccccc2s1` (some centres unmarked) [Compound 23], for which, where the note is “Table 2”, the concentration for half-maximal inhibition (IC50) lay within 0.06 to 20 nM and the maximal response (Emax) was > 80%.
For `CC12Cc3cnn(C4CCCCC4)c3C=C1CCC1C2[C@@H](O)CC2(C)C1CC[C@]2(O)C(=O)CSc1ncccn1` (some centres unmarked) [Compound 126], where the note is “Table 1”, the concentration for half-maximal inhibition (IC50) is 0.06 to 20 nM and the Emax was > 80%.
The corresponding values for `CC12Cc3cnn(-c4ccc(F)cc4)c3C=C1CCC1C2[C@@H](O)CC2(C)C1CC[C@]2(O)C(=O)CSc1nc2cccnc2s1` (some centres unmarked) [Compound 10] are 0.06 to 20 nM and > 80%.
Regarding `Cn1c(SCC(=O)[C@@]2(O)CCC3C4CCC5=Cc6c(cnn6-c6ccccn6)CC5(C)C4[C@@H](O)CC32C)nc2ccccc21` (some centres unmarked) [Compound 34], where the note is “Table 1”, the IC50 lay in the range of 66 to 400 nM and the maximal response (Emax) was 60 to 70%.
Take `CC12Cc3cnn(-c4ccccn4)c3C=C1CCC1C2[C@@H](O)CC2(C)C1CC[C@]2(O)C(=O)CSc1nc2ccccc2s1` (some centres unmarked) [Compound 35]: for the setting “Table 1”, the IC50 was 66 to 400 nM and the Emax was in the range of 60 to 70%.
Consider `C#CCNC(=O)[C@@]1(O)CCC2C3CCC4=Cc5c(cnn5-c5ccc(F)cc5)C[C@]4(C)C3[C@@H](O)C[C@@]21C` (some centres unmarked) [Compound 5], for which, under “Table 2”, the IC50 lay within 0.06 to 20 nM and the maximal effect (Emax) was > 80%.
`Cc1cccc(SCC(=O)[C@@]2(O)CCC3C4CCC5=Cc6c(cnn6CCC#N)CC5(C)C4[C@@H](O)CC32C)n1` (some centres unmarked) [Compound 61]: for the setting “Table 1”, the concentration for half-maximal inhibition (IC50) is 66 to 400 nM and the maximum response (Emax) lay in the range of 70 to 80%.

(Values after patent US20120171126A1, “NOVEL [3,2-c] HETEROARYL STEROIDS AS GLUCOCORTICOID RECEPTOR AGONISTS COMPOSITIONS AND USES THEREOF” (priority 2009, published 2012).)
